Patent US20070154567A1, “Use of mercury to treat cancer” (priority 2006, published 2007)
Where “and” joins values, the source holds several entries; their conditions need not be identical. Identical values can stand only once.

System: non-metastatic osteosarcoma on distal right radius
Assay: Oral inorganic mercury (II) treatment of a pet Rottweiler: blood data and clinical follow-up
Type: in vivo, dog
Set-up: MCV / MCH / Neutrophils, absolute / Bands / Lymphocytes, absolute / Monocytes, absolute / Eosinophils, absolute / Basophils, absolute: unit not given here
Source text: An 8 year old, 108 lbs female Rottweiler, was diagnosed with non-metastatic osteosarcoma on distal right radius.
Earlier cisplatin chemotherapy was attempted, but was stopped due to unacceptable side effects one month before the inorganic mercury treatment. Prior to treatment, the dog had high alkaline phosphatase (ALP) level that had been rising as disease progressed (compare Day (−57) and Day 1 in Table 2). ALP is a known progression marker for osteosarcoma (Kirpensteijn et al., 2002, Vet Pathol 39:240-246 and Gaetano Bacci et al., 2002, Oncology Reports 9: 171-175). The dog completed the first 30-day treatment course followed by a 30-day non-treatment period and started the second treatment course for at least up to day 65. The formulation contained 1 mM mercury acetate in 20 mM sodium acetate buffer, pH 4.5, with 100 mM sucrose and 150 mM sodium chloride additives. It was introduced orally to the dog three times a day at 0.5 micromole Hg^2+/kg/day. […] This drop in ALP level (˜250 Units/month) was significant considering that, prior to starting the mercury (II) treatment, it had been raising at ˜50 U/month rate. As observed by the attending veterinarian, the dog's appetite was increased and the dog gained 5 lbs during that period. […] During this period the condition of the dog worsened and was accompanied by an increase in ALP level (compare Day 32 and Day 65 in Table 3). The dog was euthanized on Day 91.

Q: For `CC(=O)[O-].CC(=O)[O-].[Hg+2]` [inorganic mercury (II), mercury acetate], which “condition of the dog” value (2nd treatment course, formulation administered with food in violation of the protocol) is on record?
A: worsened

Q: And the “ALT (SGPT)” value (Day 1)?
A: 61 U/L

Q: And the “AST (SGOT)” value (Day 1)?
A: 28 U/L

Q: And the Albumin (Day 1)?
A: 3.7 g/dL

Q: And the “Albumin/Globulin Ratio” value (Day 1)?
A: 1.1

Q: And the “Alkaline Phosphatase (ALP)” value (Day 1)?
A: 794 U/L and 794 (H) U/L

Q: What about the Amylase (Day 1) of the same compound?
A: 862 U/L

Q: What about the “BUN/Creatinine Ratio” value (Day 1) of the same compound?
A: 9

Q: What about the Bands (Day 1) of the same compound?
A: 0

Q: What about the “Basophils, absolute” value (Day 1) of the same compound?
A: 0

Q: What about the CPK (Day 1) of the same compound?
A: 175 U/L

Q: And the Calcium (Day 1)?
A: 10.6 mg/dL

Q: What about the Chloride (Day 1) of the same compound?
A: 116 mE/L

Q: What about the Cholesterol (Day 1) of the same compound?
A: 240 mg/dL

Q: What about the Creatinine (Day 1) of the same compound?
A: 1.2 mg/dL

Q: What about the “Eosinophils, (%)” value (Day 1) of the same compound?
A: 7%

Q: What about the “Eosinophils, absolute” value (Day 1) of the same compound?
A: 770

Q: And the Globulin (Day 1)?
A: 3.4 g/dL

Q: And the Glucose (Day 1)?
A: 77 mg/dL

Q: What about the Hematocrit (Day 1) of the same compound?
A: 41.3%

Q: And the Hemoglobin (Day 1)?
A: 13.7 g/dL

Q: And the “Lymphocytes, (%)” value (Day 1)?
A: 26%

Q: What about the “Lymphocytes, absolute” value (Day 1) of the same compound?
A: 2860

Q: And the MCH (Day 1)?
A: 22.2

Q: And the MCHC (Day 1)?
A: 33.2

Q: And the MCV (Day 1)?
A: 67

Q: And the “Monocytes, (%)” value (Day 1)?
A: 6%

Q: What about the “Monocytes, absolute” value (Day 1) of the same compound?
A: 660

Q: And the “Neutrophils, (%)” value (Day 1)?
A: 61%

Q: What about the “Neutrophils, absolute” value (Day 1) of the same compound?
A: 6710

Q: And the Phosphorus (Day 1)?
A: 5.4 mg/dL

Q: What about the Platelet count (Day 1) of the same compound?
A: 475 (H) 10^3/microl

Q: What about the Potassium (Day 1) of the same compound?
A: 5.2 mE/L

Q: What about the RBC (Day 1) of the same compound?
A: 6.16 10^6/microl

Q: And the Sodium (Day 1)?
A: 152 mE/L

Q: What about the “Total Billirubin” value (Day 1) of the same compound?
A: 0.1 mg/dL

Q: What about the “Total Protein” value (Day 1) of the same compound?
A: 7.1 g/dL

Q: What about the “Urea Nitrogen” value (Day 1) of the same compound?
A: 11 mg/dL

Q: And the WBC (Day 1)?
A: 11.0 10^3/microl

Q: What about the “drop in ALP level” value (Day 1 to Day 32, first treatment course) of the same compound?
A: ~250 Units/month

Q: What about the “ALT (SGPT)” value (Day 32) of the same compound?
A: 61 U/L

Q: And the “AST (SGOT)” value (Day 32)?
A: 27 U/L

Q: What about the Albumin (Day 32) of the same compound?
A: 3.5 g/dL

Q: What about the “Albumin/Globulin Ratio” value (Day 32) of the same compound?
A: 1.1

Q: And the “Alkaline Phosphatase (ALP)” value (Day 32)?
A: 539 U/L and 539 (H) U/L

Q: And the Amylase (Day 32)?
A: 864 U/L

Q: And the “BUN/Creatinine Ratio” value (Day 32)?
A: 12

Q: What about the Bands (Day 32) of the same compound?
A: 0

Q: And the CPK (Day 32)?
A: 198 U/L

Q: What about the Calcium (Day 32) of the same compound?
A: 10.5 mg/dL

Q: And the Chloride (Day 32)?
A: 118 mE/L

Q: What about the Cholesterol (Day 32) of the same compound?
A: 251 mg/dL

Q: And the Creatinine (Day 32)?
A: 1.3 mg/dL

Q: What about the “Eosinophils, (%)” value (Day 32) of the same compound?
A: 5%

Q: What about the “Eosinophils, absolute” value (Day 32) of the same compound?
A: 495

Q: And the Globulin (Day 32)?
A: 3.3 g/dL

Q: What about the Glucose (Day 32) of the same compound?
A: 102 mg/dL

Q: And the Hematocrit (Day 32)?
A: 39.1%

Q: And the Hemoglobin (Day 32)?
A: 13.9 g/dL

Q: And the “Lymphocytes, (%)” value (Day 32)?
A: 35%

Q: And the “Lymphocytes, absolute” value (Day 32)?
A: 3465

Q: What about the MCH (Day 32) of the same compound?
A: 24.6

Q: What about the MCHC (Day 32) of the same compound?
A: 35.5

Q: And the MCV (Day 32)?
A: 69

Q: And the “Monocytes, (%)” value (Day 32)?
A: 5%

Q: What about the “Monocytes, absolute” value (Day 32) of the same compound?
A: 495

Q: What about the “Neutrophils, (%)” value (Day 32) of the same compound?
A: 55%

Q: And the “Neutrophils, absolute” value (Day 32)?
A: 5445

Q: What about the Phosphorus (Day 32) of the same compound?
A: 5.5 mg/dL

Q: And the Platelet count (Day 32)?
A: 213 10^3/microl

Q: And the Potassium (Day 32)?
A: 5.2 mE/L

Q: What about the RBC (Day 32) of the same compound?
A: 5.64 10^6/microl

Q: And the Sodium (Day 32)?
A: 146 mE/L

Q: What about the “Total Billirubin” value (Day 32) of the same compound?
A: 0.2 mg/dL

Q: What about the “Total Protein” value (Day 32) of the same compound?
A: 6.8 g/dL

Q: And the “Urea Nitrogen” value (Day 32)?
A: 16 mg/dL

Q: What about the WBC (Day 32) of the same compound?
A: 9.9 10^3/microl

Q: What about the “ALT (SGPT)” value (Day 65) of the same compound?
A: 62 U/L

Q: What about the “AST (SGOT)” value (Day 65) of the same compound?
A: 30 U/L

Q: And the Albumin (Day 65)?
A: 3.8 g/dL

Q: What about the “Albumin/Globulin Ratio” value (Day 65) of the same compound?
A: 1.0

Q: What about the “Alkaline Phosphatase (ALP)” value (Day 65) of the same compound?
A: 606 (H) U/L

Q: What about the Amylase (Day 65) of the same compound?
A: 1003 U/L

Q: What about the “BUN/Creatinine Ratio” value (Day 65) of the same compound?
A: 13

Q: And the Bands (Day 65)?
A: 0

Q: What about the “Basophils, absolute” value (Day 65) of the same compound?
A: 0

Q: And the CPK (Day 65)?
A: 171 U/L

Q: What about the Calcium (Day 65) of the same compound?
A: 10.9 mg/dL

Q: And the Chloride (Day 65)?
A: 113 mE/L

Q: What about the Cholesterol (Day 65) of the same compound?
A: 244 mg/dL

Q: What about the Creatinine (Day 65) of the same compound?
A: 1.2 mg/dL

Q: And the “Eosinophils, (%)” value (Day 65)?
A: 8%

Q: What about the “Eosinophils, absolute” value (Day 65) of the same compound?
A: 808

Q: What about the Globulin (Day 65) of the same compound?
A: 3.8 (H) g/dL

Q: And the Glucose (Day 65)?
A: 87 mg/dL

Q: And the Hematocrit (Day 65)?
A: 42.3%

Q: And the Hemoglobin (Day 65)?
A: 16.1 g/dL

Q: And the “Lymphocytes, (%)” value (Day 65)?
A: 33%

Q: What about the “Lymphocytes, absolute” value (Day 65) of the same compound?
A: 3333

Q: And the MCH (Day 65)?
A: 24.8

Q: What about the MCHC (Day 65) of the same compound?
A: 38.1 (H)

Q: What about the MCV (Day 65) of the same compound?
A: 65

Q: And the “Monocytes, (%)” value (Day 65)?
A: 4%

Q: What about the “Monocytes, absolute” value (Day 65) of the same compound?
A: 404

Q: What about the “Neutrophils, (%)” value (Day 65) of the same compound?
A: 55%

Q: And the “Neutrophils, absolute” value (Day 65)?
A: 5555

Q: What about the Phosphorus (Day 65) of the same compound?
A: 5.1 mg/dL

Q: What about the Platelet count (Day 65) of the same compound?
A: 368 10^3/microl

Q: And the Potassium (Day 65)?
A: 4.6 mE/L

Q: And the RBC (Day 65)?
A: 6.49 10^6/microl

Q: And the Sodium (Day 65)?
A: 150 mE/L

Q: What about the “Total Billirubin” value (Day 65) of the same compound?
A: 0.1 mg/dL

Q: What about the “Total Protein” value (Day 65) of the same compound?
A: 7.5 (H) g/dL

Q: And the “Urea Nitrogen” value (Day 65)?
A: 15 mg/dL

Q: What about the WBC (Day 65) of the same compound?
A: 10.1 10^3/microl

Q: What about the weight gained (first 30 days of treatment) of the same compound?
A: 5 lbs

Q: What about the appetite (first 30 days of treatment, observed by attending veterinarian) of the same compound?
A: increased
